Experimental data as given in ChEMBL document CHEMBL1201862, “PubChem BioAssay data set” (2004).
Active and inactive are the calls of the source.

Columns and labels:
[1] = target: Genome polyprotein (dengue virus type 2, UniProt P29990); test: Dengue-2 NS5 methyltransferase inhibitors, primary screen, biochemical, confirmation dose response (AID 588689); format: functional
[2] = target: T1, Microphthalmia-associated transcription factor (Homo sapiens, UniProt O75030); test: TRPM1 promoter luciferase signal decrease, dose response, MITF inhibitor project, cell-based, SK-MEL-5, cherry-picked, set 3 (AID 493073); format: functional
T1 sequence (O75030 whole entry): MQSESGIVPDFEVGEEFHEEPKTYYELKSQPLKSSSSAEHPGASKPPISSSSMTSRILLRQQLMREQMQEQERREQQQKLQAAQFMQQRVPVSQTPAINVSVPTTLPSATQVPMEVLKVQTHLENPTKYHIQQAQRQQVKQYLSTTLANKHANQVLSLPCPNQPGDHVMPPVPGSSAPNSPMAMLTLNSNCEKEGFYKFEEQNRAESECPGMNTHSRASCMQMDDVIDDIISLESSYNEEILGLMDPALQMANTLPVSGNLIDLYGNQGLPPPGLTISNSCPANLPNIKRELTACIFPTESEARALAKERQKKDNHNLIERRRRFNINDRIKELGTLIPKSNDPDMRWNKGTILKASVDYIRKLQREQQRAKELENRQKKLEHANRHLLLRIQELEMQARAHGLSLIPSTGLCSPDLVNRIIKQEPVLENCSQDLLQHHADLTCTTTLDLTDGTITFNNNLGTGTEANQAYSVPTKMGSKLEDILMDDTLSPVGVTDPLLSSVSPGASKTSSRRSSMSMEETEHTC

[3] = target: T2, Caspase-6 (Homo sapiens, UniProt P55212); test: human caspase-6 inhibitors, dose response, biochemical, VEID-R110 fluorescence, cherry-pick (AID 720632)
T2 sequence (P55212 whole entry): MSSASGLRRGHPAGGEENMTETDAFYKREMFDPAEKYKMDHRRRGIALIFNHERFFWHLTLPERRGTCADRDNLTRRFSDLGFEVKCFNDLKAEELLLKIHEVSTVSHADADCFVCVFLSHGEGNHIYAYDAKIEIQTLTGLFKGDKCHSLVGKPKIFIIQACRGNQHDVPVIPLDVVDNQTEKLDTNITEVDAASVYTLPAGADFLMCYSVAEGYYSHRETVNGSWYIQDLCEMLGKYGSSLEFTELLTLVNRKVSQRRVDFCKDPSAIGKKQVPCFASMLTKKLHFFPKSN

[4] = system: Vero; test: Vero cell cytotoxicity, cytotoxicity control for flavivirus capping enzyme inhibitors (AID 588742); format: functional; conditions: Chlorocebus sabaeus
[5] = target: Tyrosyl-DNA phosphodiesterase 2 (Homo sapiens, UniProt O95551); test: human TDP2 enzyme inhibitors, dose response, biochemical, epi absorbance, IC50 (AID 743297)
[6] = target: T3, Hexokinase HKDC1 (Homo sapiens, UniProt Q2TB90); test: HKDC1 hexokinase inhibitors, dose response, biochemical, W721R variant (AID 504729); format: functional
T3 sequence (Q2TB90 whole entry): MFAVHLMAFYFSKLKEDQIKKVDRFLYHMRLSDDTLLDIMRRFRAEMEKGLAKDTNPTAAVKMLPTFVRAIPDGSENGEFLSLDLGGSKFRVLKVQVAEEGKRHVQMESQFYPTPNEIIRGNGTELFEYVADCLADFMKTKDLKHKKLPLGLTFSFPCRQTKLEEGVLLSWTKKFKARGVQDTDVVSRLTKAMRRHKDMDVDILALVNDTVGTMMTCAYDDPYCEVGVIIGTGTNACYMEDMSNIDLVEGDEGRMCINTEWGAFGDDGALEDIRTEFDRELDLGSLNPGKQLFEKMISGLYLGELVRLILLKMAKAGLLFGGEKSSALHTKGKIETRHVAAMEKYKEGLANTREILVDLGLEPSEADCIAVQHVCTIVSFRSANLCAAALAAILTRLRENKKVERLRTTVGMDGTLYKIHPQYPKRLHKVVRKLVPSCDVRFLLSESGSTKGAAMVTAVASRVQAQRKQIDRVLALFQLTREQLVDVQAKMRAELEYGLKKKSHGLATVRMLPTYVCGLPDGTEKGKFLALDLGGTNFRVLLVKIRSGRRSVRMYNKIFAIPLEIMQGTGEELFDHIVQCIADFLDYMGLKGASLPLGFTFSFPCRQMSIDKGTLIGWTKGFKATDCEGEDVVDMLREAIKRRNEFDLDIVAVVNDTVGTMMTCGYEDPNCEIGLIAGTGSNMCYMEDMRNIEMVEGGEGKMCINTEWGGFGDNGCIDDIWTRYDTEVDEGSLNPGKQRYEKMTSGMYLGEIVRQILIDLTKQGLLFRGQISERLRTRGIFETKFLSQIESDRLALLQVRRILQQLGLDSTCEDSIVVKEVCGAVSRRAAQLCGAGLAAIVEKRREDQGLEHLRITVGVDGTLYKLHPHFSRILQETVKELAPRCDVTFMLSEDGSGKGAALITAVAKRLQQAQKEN

[7] = target: T4, Histone-lysine N-methyltransferase NSD2 (Homo sapiens, UniProt O96028); format: biochemical
T4 sequence (O96028 whole entry): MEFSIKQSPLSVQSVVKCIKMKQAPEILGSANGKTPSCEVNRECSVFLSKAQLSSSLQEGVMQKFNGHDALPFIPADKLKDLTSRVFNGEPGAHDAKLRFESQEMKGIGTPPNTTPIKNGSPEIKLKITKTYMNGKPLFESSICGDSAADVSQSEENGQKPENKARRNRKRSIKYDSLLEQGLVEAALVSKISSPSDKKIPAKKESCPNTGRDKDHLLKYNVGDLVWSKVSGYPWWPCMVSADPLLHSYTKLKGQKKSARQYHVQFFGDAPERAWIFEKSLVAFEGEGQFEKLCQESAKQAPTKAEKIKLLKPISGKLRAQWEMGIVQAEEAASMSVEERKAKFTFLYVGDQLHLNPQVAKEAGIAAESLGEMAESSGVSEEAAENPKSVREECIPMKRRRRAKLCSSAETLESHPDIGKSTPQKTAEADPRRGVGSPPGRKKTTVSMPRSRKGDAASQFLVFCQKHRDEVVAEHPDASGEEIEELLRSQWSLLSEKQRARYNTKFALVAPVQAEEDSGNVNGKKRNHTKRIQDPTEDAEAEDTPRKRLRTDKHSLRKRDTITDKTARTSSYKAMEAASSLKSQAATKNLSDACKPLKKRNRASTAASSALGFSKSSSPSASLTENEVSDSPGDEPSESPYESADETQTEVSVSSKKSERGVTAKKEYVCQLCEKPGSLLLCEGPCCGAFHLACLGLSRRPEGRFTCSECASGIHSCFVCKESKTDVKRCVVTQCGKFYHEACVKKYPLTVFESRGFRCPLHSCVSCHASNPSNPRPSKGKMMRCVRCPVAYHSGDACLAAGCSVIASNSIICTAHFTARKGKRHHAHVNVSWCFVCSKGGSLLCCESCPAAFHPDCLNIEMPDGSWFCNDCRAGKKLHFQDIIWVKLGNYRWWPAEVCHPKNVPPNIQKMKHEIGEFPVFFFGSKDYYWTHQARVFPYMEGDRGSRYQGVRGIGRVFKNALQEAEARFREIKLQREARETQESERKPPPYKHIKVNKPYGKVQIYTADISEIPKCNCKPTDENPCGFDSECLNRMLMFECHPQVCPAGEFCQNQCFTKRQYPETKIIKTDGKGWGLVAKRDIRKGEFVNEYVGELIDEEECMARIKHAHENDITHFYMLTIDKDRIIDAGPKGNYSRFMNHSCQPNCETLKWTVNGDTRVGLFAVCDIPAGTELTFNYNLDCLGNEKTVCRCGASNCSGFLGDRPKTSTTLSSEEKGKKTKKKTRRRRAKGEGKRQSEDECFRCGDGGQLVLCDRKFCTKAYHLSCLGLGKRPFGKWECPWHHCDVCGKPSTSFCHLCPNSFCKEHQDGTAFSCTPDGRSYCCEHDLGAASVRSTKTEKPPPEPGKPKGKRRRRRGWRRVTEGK

[8] = target: Protein disulfide-isomerase (Homo sapiens, UniProt P07237); test: PDI inhibitors, insulin turbidity readout, confirmation, biochemical, dry powder samples, set 2 (AID 652146)
[9] = NIH:OVCAR-3 ovarian cancer cell cytotoxicity, dose response, PAX8 inhibitor project, plate reader, dry powder samples (AID 743044); format: functional, cell-based
[10] = non-specific cell cytotoxicity, dose response, cytotoxicity control for PAX8 inhibitor project, plate reader, dry powder samples (AID 743021); format: functional, cell-based
[11] = target: Paired box protein Pax-8 (Homo sapiens, UniProt Q06710); test: inhibitors of PAX8-driven TPO luciferase reporter, dose response, RMG-I cells, cherry-pick (AID 687027); format: functional, cell-based;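 also: luciferase reporter driven by Pax8 target thyroperoxidase promoter measured by SteadyGlo luminescence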
[12] = A2780 ovarian cancer cell cytotoxicity, dose response, cytotoxicity control, plate reader, dry powder samples (AID 743046); format: functional, cell-based
[13] = IOSE-T80 ovarian epithelial cell cytotoxicity, dose response, cytotoxicity control for PAX8 inhibitor project, plate reader, dry powder samples (AID 743045); format: functional, cell-based

Chain of Protein disulfide-isomerase (P07237 whole entry): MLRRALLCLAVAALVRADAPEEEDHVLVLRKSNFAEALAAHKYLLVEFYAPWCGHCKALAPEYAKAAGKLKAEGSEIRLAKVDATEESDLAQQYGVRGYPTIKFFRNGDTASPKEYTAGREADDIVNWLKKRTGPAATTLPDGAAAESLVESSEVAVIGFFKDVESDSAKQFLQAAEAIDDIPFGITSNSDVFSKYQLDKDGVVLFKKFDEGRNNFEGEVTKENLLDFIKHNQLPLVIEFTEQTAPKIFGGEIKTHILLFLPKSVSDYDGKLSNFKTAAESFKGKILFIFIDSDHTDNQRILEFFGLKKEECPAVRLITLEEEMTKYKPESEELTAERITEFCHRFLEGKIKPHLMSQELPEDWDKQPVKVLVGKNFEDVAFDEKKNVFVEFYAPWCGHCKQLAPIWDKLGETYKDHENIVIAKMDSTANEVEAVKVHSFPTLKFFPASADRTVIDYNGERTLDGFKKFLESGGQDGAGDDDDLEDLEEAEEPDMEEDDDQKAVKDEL
Chain of Paired box protein Pax-8 (Q06710 whole entry): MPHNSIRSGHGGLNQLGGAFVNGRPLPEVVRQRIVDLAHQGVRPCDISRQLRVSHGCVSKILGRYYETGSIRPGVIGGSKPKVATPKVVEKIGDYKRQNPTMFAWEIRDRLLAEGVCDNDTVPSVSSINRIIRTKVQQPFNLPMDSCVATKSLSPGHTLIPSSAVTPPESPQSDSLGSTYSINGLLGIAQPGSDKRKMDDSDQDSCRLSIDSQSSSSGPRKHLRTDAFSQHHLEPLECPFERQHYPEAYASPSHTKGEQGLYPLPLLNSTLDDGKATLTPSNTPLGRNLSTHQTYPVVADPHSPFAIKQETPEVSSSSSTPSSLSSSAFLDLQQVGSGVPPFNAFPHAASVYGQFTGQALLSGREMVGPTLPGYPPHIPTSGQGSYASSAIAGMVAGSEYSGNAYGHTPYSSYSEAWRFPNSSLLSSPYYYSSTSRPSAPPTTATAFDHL
Chain of Tyrosyl-DNA phosphodiesterase 2 (O95551 whole entry): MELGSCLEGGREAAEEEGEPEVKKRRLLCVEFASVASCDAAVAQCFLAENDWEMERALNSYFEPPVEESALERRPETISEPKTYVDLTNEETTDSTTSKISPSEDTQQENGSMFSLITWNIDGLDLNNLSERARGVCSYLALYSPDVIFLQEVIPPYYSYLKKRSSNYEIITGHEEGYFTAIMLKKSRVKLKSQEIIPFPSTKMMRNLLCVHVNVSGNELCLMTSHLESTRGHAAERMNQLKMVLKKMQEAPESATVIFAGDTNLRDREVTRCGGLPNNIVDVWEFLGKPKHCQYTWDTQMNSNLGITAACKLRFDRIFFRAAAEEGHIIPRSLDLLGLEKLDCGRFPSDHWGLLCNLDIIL
Chain of Genome polyprotein (P29990 2492-3391 limits assumed): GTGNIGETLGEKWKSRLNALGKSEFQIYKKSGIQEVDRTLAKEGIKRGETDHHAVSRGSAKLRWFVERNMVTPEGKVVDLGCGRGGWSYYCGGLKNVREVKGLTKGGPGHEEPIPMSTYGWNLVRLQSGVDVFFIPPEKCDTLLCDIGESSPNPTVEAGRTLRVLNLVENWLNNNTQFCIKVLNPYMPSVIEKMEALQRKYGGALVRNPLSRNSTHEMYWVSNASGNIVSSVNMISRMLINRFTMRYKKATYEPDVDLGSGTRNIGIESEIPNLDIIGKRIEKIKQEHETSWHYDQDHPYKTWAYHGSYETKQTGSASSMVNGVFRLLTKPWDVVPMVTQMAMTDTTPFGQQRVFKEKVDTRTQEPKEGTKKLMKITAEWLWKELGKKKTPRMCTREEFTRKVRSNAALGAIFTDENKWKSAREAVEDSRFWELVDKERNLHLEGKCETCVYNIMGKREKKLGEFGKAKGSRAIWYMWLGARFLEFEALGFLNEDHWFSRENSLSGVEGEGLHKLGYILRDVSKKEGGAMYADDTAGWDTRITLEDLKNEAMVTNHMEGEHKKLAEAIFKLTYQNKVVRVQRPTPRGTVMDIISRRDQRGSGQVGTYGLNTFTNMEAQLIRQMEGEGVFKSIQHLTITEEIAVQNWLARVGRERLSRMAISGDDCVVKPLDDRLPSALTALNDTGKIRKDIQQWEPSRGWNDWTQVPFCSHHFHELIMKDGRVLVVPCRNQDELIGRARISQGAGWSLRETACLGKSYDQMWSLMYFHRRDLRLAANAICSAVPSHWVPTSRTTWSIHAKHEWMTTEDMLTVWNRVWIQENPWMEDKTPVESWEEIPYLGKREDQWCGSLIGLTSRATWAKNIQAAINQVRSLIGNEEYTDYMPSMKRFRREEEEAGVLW

Cc1ccc(C)c(-n2c3nc(=O)[nH]c(=O)c-3cc3cc([N+](=O)[O-])ccc32)c1
active: IC50 [1] 14.9 µM | AC50 [2] 8.42 µM | AC50 [3] 20.7 µM | CC50 [4] 14.5 µM | IC50 [6] 12.9 µM
inactive: IC50 [5] > 128 µM | AC50 [7] > 20 µM

CCOC(=O)C1(Cc2cccc(OC)c2)CCN(Cc2ccc(O)c(Cl)c2)CC1
inactive: AC50 [8] > 30 µM

Cc1ccc(S(=O)(=O)Nc2ccc3c(c2)CC(=O)N([C@@H](C)CO)C[C@H](C)[C@@H](CN(C)Cc2ccc(Oc4ccccc4)cc2)O3)cc1
active: AC50 [9] 19.8 µM | AC50 [10] 55 µM | AC50 [11] 4.67 µM | AC50 [12] 38.6 µM | AC50 [13] 26.3 µM
